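Five concentrations, 48 hours, 96-well plates. GI50: concentration for 50% inhibition of growth.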 The source made the active and inactive calls. Cut-off read from the data, not from the text of the source: active = GI50 up to about 1.1 µM and inactive = higher.
How the values were obtained:
Test in all cases: DTP human tumour cell line panel, 48 h
HOP-92 = system: HOP-92
NCI-H23 = system: NCI-H23
HOP-18 = system: HOP-18
SF-295 = system: SF-295
NCI-H226 = system: NCI-H226
EKVX = system: EKVX
HOP-62 = system: HOP-62
HT-29 = system: HT-29
RPMI-8226 = system: RPMI-8226
OVCAR-5 = system: OVCAR-5
Malme-3M = system: Malme-3M
HL-60 = system: HL-60
COLO 205 = system: COLO 205
IGROV-1 = system: IGROV-1
SNB-78 = system: SNB-78
UO-31 = system: UO-31
CCRF-CEM = system: CCRF-CEM
NCI-H460 = system: NCI-H460
SK-OV-3 = system: SK-OV-3
MOLT-4 = system: MOLT-4
TK-10 = system: TK-10
A549 = system: A549
XF498 = system: XF498
LXFL 529 = system: LXFL 529
SNB-19 = system: SNB-19
OVCAR-8 = system: OVCAR-8
786-0 = system: 786-0
SK-MEL-5 = system: SK-MEL-5
SK-MEL-28 = system: SK-MEL-28
DMS-114 = system: DMS-114
HCC 2998 = system: HCC 2998
DMS-273 = system: DMS-273
SF-539 = system: SF-539
KM12 = system: KM12
SK-MEL-2 = system: SK-MEL-2
M14 = system: M14
SN12C = system: SN12C
M19-MEL = system: M19-MEL
U-251 = system: U-251
HCT-15 = system: HCT-15
HCT-116 = system: HCT-116
OVCAR-3 = system: OVCAR-3
ACHN = system: ACHN
SNB-75 = system: SNB-75
NCI-H522 = system: NCI-H522
OVCAR-4 = system: OVCAR-4
DLD-1 = system: DLD-1
UACC-257 = system: UACC-257
K562 = system: K562
SF-268 = system: SF-268
RXF 393 = system: RXF 393
SR = system: SR
KM-20L2 = system: KM-20L2
LOX IMVI = system: LOX IMVI
CAKI-1 = system: CAKI-1
A498 = system: A498
SW-620 = system: SW-620
UACC-62 = system: UACC-62
NCI/ADR-RES = system: NCI/ADR-RES
MCF7 = system: MCF7

## Cc1ccc(S(=O)(=O)C(C#N)c2nc3ccccc3nc2-n2ccnc2)cc1 (stereo not drawn)
HOP-92
  GI50: > 100 µM (inactive)
NCI-H23
  GI50: > 100 µM (inactive)
HOP-18
  GI50: > 100 µM (inactive)
SF-295
  GI50: > 100 µM (inactive)
NCI-H226
  GI50: 54.8 µM (inactive)
EKVX
  GI50: > 100 µM (inactive)
HOP-62
  GI50: > 100 µM (inactive)
HT-29
  GI50: > 100 µM (inactive)
RPMI-8226
  GI50: > 100 µM (inactive)
OVCAR-5
  GI50: > 100 µM (inactive)
Malme-3M
  GI50: > 100 µM (inactive)
HL-60
  GI50: > 100 µM (inactive)
COLO 205
  GI50: > 100 µM (inactive)
IGROV-1
  GI50: > 100 µM (inactive)
SNB-78
  GI50: > 100 µM (inactive)
UO-31
  GI50: > 100 µM (inactive)
CCRF-CEM
  GI50: > 100 µM (inactive)
NCI-H460
  GI50: > 100 µM (inactive)
SK-OV-3
  GI50: > 100 µM (inactive)
MOLT-4
  GI50: > 100 µM (inactive)
TK-10
  GI50: > 100 µM (inactive)
A549
  GI50: > 100 µM (inactive)
XF498
  GI50: > 100 µM (inactive)
LXFL 529
  GI50: > 100 µM (inactive)
SNB-19
  GI50: > 100 µM (inactive)
OVCAR-8
  GI50: > 100 µM (inactive)
786-0
  GI50: > 100 µM (inactive)
SK-MEL-5
  GI50: > 100 µM (inactive)
SK-MEL-28
  GI50: > 100 µM (inactive)
DMS-114
  GI50: > 100 µM (inactive)
HCC 2998
  GI50: > 100 µM (inactive)
DMS-273
  GI50: > 100 µM (inactive)
SF-539
  GI50: > 100 µM (inactive)
KM12
  GI50: > 100 µM (inactive)
SK-MEL-2
  GI50: > 100 µM (inactive)
M14
  GI50: > 100 µM (inactive)
SN12C
  GI50: > 100 µM (inactive)
M19-MEL
  GI50: > 100 µM (inactive)
U-251
  GI50: > 100 µM (inactive)
HCT-15
  GI50: > 100 µM
HCT-116
  GI50: > 100 µM (inactive)
OVCAR-3
  GI50: > 100 µM (inactive)
ACHN
  GI50: > 100 µM (inactive)
SNB-75
  GI50: > 100 µM (inactive)
NCI-H522
  GI50: > 100 µM (inactive)
OVCAR-4
  GI50: > 100 µM (inactive)
DLD-1
  GI50: > 100 µM (inactive)
UACC-257
  GI50: > 100 µM (inactive)
K562
  GI50: > 100 µM (inactive)
SF-268
  GI50: > 100 µM (inactive)

## O=C(/C=C/c1ccccc1Cl)NC1C=Nc2ccc([N+](=O)[O-])cc2NC1 (stereo not drawn)
HOP-18
  GI50: > 100 µM (inactive)
SF-295
  GI50: > 100 µM (inactive)
NCI-H226
  GI50: > 100 µM (inactive)
EKVX
  GI50: > 100 µM (inactive)
RXF 393
  GI50: 97.7 µM (inactive)
SR
  GI50: 14 µM (inactive)
HOP-62
  GI50: > 100 µM (inactive)
KM-20L2
  GI50: > 100 µM (inactive)
RPMI-8226
  GI50: 30.8 µM (inactive)
OVCAR-5
  GI50: > 100 µM (inactive)
Malme-3M
  GI50: > 100 µM (inactive)
HL-60
  GI50: 49.2 µM (inactive)
COLO 205
  GI50: 39.5 µM (inactive)
IGROV-1
  GI50: 88.7 µM (inactive)
SNB-78
  GI50: > 100 µM (inactive)
LOX IMVI
  GI50: 39.4 µM (inactive)
UO-31
  GI50: 24.4 µM (inactive)
CCRF-CEM
  GI50: 12.7 µM (inactive)
NCI-H460
  GI50: 47 µM (inactive)
SK-OV-3
  GI50: > 100 µM (inactive)
MOLT-4
  GI50: 13.4 µM (inactive)
TK-10
  GI50: > 100 µM (inactive)
A549
  GI50: > 100 µM (inactive)
XF498
  GI50: > 100 µM (inactive)
LXFL 529
  GI50: 43.2 µM (inactive)
SNB-19
  GI50: > 100 µM (inactive)
OVCAR-8
  GI50: 55.8 µM (inactive)
786-0
  GI50: 44.8 µM (inactive)
SK-MEL-5
  GI50: > 100 µM (inactive)
CAKI-1
  GI50: 66.8 µM (inactive)
SK-MEL-28
  GI50: > 100 µM (inactive)
DMS-114
  GI50: 48.4 µM (inactive)
A498
  GI50: > 100 µM (inactive)
SW-620
  GI50: 4.25 µM (inactive)
HCC 2998
  GI50: > 100 µM (inactive)
DMS-273
  GI50: > 100 µM (inactive)
SF-539
  GI50: > 100 µM (inactive)
KM12
  GI50: 34.4 µM (inactive)
SK-MEL-2
  GI50: > 100 µM (inactive)
M14
  GI50: > 100 µM (inactive)
SN12C
  GI50: 98.6 µM (inactive)
M19-MEL
  GI50: 53.2 µM (inactive)
U-251
  GI50: 35.3 µM (inactive)
HCT-15
  GI50: 35.9 µM
HCT-116
  GI50: 59.6 µM (inactive)
OVCAR-3
  GI50: 42.3 µM (inactive)
ACHN
  GI50: 39.7 µM (inactive)
SNB-75
  GI50: 90.8 µM (inactive)
NCI-H522
  GI50: 22.6 µM (inactive)
OVCAR-4
  GI50: 78.3 µM (inactive)
DLD-1
  GI50: 48.6 µM (inactive)
UACC-62
  GI50: > 100 µM (inactive)
UACC-257
  GI50: 89.3 µM (inactive)
K562
  GI50: 46.1 µM (inactive)
SF-268
  GI50: > 100 µM (inactive)

## Cc1[nH]c(=O)[nH]c(=O)c1/C=C/C(=O)NC(CO)C[S+]([O-])Cc1ccccc1 (stereo not drawn)
HOP-92
  GI50: > 190 µM (inactive)
NCI-H23
  GI50: > 300 µM (inactive)
HOP-18
  GI50: > 289 µM (inactive)
SF-295
  GI50: > 300 µM (inactive)
NCI-H226
  GI50: > 300 µM (inactive)
EKVX
  GI50: > 300 µM (inactive)
RXF 393
  GI50: > 300 µM (inactive)
HOP-62
  GI50: > 300 µM (inactive)
HT-29
  GI50: > 300 µM (inactive)
KM-20L2
  GI50: > 300 µM (inactive)
RPMI-8226
  GI50: > 300 µM (inactive)
OVCAR-5
  GI50: > 300 µM (inactive)
Malme-3M
  GI50: > 300 µM (inactive)
HL-60
  GI50: > 300 µM (inactive)
COLO 205
  GI50: > 300 µM (inactive)
IGROV-1
  GI50: > 300 µM (inactive)
NCI/ADR-RES
  GI50: > 300 µM (inactive)
SNB-78
  GI50: > 300 µM (inactive)
LOX IMVI
  GI50: > 300 µM (inactive)
UO-31
  GI50: > 300 µM (inactive)
CCRF-CEM
  GI50: > 300 µM (inactive)
NCI-H460
  GI50: > 300 µM (inactive)
SK-OV-3
  GI50: > 300 µM (inactive)
MOLT-4
  GI50: > 300 µM (inactive)
A549
  GI50: > 300 µM (inactive)
XF498
  GI50: > 300 µM (inactive)
SNB-19
  GI50: > 300 µM (inactive)
OVCAR-8
  GI50: > 300 µM (inactive)
SK-MEL-5
  GI50: > 300 µM (inactive)
CAKI-1
  GI50: > 300 µM (inactive)
SK-MEL-28
  GI50: > 300 µM (inactive)
DMS-114
  GI50: > 300 µM (inactive)
A498
  GI50: > 300 µM (inactive)
SW-620
  GI50: > 300 µM (inactive)
HCC 2998
  GI50: > 300 µM (inactive)
DMS-273
  GI50: > 300 µM (inactive)
SF-539
  GI50: > 300 µM (inactive)
KM12
  GI50: 299 µM (inactive)
SK-MEL-2
  GI50: > 277 µM (inactive)
SN12C
  GI50: > 300 µM (inactive)
M19-MEL
  GI50: > 300 µM (inactive)
U-251
  GI50: > 300 µM (inactive)
HCT-15
  GI50: > 300 µM
HCT-116
  GI50: > 300 µM (inactive)
OVCAR-3
  GI50: > 300 µM (inactive)
SNB-75
  GI50: 296 µM (inactive)
NCI-H522
  GI50: > 300 µM (inactive)
MCF7
  GI50: > 300 µM (inactive)
DLD-1
  GI50: > 300 µM (inactive)
UACC-62
  GI50: > 300 µM (inactive)
UACC-257
  GI50: > 300 µM (inactive)
K562
  GI50: > 300 µM (inactive)
SF-268
  GI50: > 300 µM (inactive)

From ChEMBL document CHEMBL1201862, “PubChem BioAssay data set” (2004)
